Results reported in ChEMBL document CHEMBL3044627, “Residual and sublethal effects of fenpyroximate and pyridaben on the instantaneous rate of increase of Tetranychus urticae” (Crop Prot, 2006).
Active and inactive are the calls of the source. The rule behind the calls is not given here.

What was measured:
Format in all cases: functional, organism-based
Tetranychus urticae [1] = assay: Acaricidal activity against Tetranychus urticae (two-spotted spider mite) infested kidney bean leaves assessed as decrease in reproduction of survivors applied as spray after 7 days
Tetranychus urticae [2] = assay: Acaricidal activity against Tetranychus urticae (two-spotted spider mite) infested kidney bean leaves assessed as decrease in reproduction of survivors applied as spray after 5 days
Tetranychus urticae [3] = assay: Acaricidal activity against Tetranychus urticae (two-spotted spider mite) infested kidney bean leaves assessed as decrease in reproduction of survivors applied as spray after 3 days
Tetranychus urticae [4] = assay: Acaricidal activity against Tetranychus urticae (two-spotted spider mite) infested kidney bean leaves assessed as decrease in reproduction of survivors applied as spray after 9 days
Tetranychus urticae [5] = assay: Acaricidal activity against Tetranychus urticae (two-spotted spider mite) infested kidney bean leaves assessed as decrease in immature production at 2101 ppm applied as spray after 3 to 6 days
Tetranychus urticae [6] = assay: Acaricidal activity against Tetranychus urticae (two-spotted spider mite) infested kidney bean leaves assessed as decrease in egg production applied as spray after 3 to 6 days
Tetranychus urticae [7] = assay: Acaricidal activity against Tetranychus urticae (two-spotted spider mite) infested kidney bean leaves assessed as decrease in survival at 2101.3 to 20446.5 ppm applied as spray after 3 days relative to control
Tetranychus urticae [8] = assay: Acaricidal activity against Tetranychus urticae (two-spotted spider mite) infested kidney bean leaves assessed as decrease in reproduction of survivors applied as spray after 1 day
Tetranychus urticae [9] = assay: Acaricidal activity against Tetranychus urticae (two-spotted spider mite) infested kidney bean leaves assessed as decrease in survivors of progeny applied as spray after 7 days
Tetranychus urticae [10] = assay: Acaricidal activity against Tetranychus urticae (two-spotted spider mite) infested kidney bean leaves assessed as decrease in survivors of progeny applied as spray after 5 days
Tetranychus urticae [11] = assay: Acaricidal activity against Tetranychus urticae (two-spotted spider mite) infested kidney bean leaves assessed as decrease in survivors of progeny applied as spray after 3 days
Tetranychus urticae [12] = assay: Acaricidal activity against Tetranychus urticae (two-spotted spider mite) infested kidney bean leaves assessed as decrease in survivors of progeny applied as spray after 1 day
Tetranychus urticae [13] = assay: Acaricidal activity against Tetranychus urticae (two-spotted spider mite) infested kidney bean leaves assessed as decrease in immature production at 6.4 to 46.6 ppm applied as spray after 3 to 6 days
Tetranychus urticae [14] = assay: Acaricidal activity against Tetranychus urticae (two-spotted spider mite) infested kidney bean leaves assessed as decrease in survival at 6.4 to 46.6 ppm applied as spray after 7 to 9 days relative to control
Tetranychus urticae [15] = assay: Acaricidal activity against Tetranychus urticae (two-spotted spider mite) infested kidney bean leaves assessed as decrease in survival at 6.4 to 46.6 ppm applied as spray up to 5 days relative to control
Tetranychus urticae [16] = assay: Acaricidal activity against Tetranychus urticae (two-spotted spider mite) infested kidney bean leaves assessed as decrease in survivors of progeny applied as spray after 9 days

| SMILES | EC50 (Tetranychus urticae [1]) | EC50 (Tetranychus urticae [2]) | EC50 (Tetranychus urticae [3]) | EC50 (Tetranychus urticae [4]) | Activity (Tetranychus urticae [5]) | Activity (Tetranychus urticae [6]) | Activity (Tetranychus urticae [7]) | EC50 (Tetranychus urticae [8]) | EC50 (Tetranychus urticae [9]) | EC50 (Tetranychus urticae [10]) | EC50 (Tetranychus urticae [11]) | EC50 (Tetranychus urticae [12]) | Activity (Tetranychus urticae [13]) | Activity (Tetranychus urticae [14]) | Activity (Tetranychus urticae [15]) | EC50 (Tetranychus urticae [16]) |
| --- | --- | --- | --- | --- | --- | --- | --- | --- | --- | --- | --- | --- | --- | --- | --- | --- |
| CC(C)(C)c1ccc(CSc2cnn(C(C)(C)C)c(=O)c2Cl)cc1 [PYRIDABEN] | 19425.1 ppm | 19439.6 ppm | 19162.1 ppm | 49880.7 ppm | Active | Dose-dependent effect | inactive | 9118.1 ppm |  |  |  |  |  |  |  |  |
| Cc1nn(C)c(Oc2ccccc2)c1/C=N/OCc1ccc(C(=O)OC(C)(C)C)cc1 [FENPYROXYMATE] | 124 ppm | 130.8 ppm | 131.1 ppm | 253.7 ppm |  |  |  | 114.6 ppm | 70.1 ppm | 72.7 ppm | 99 ppm | 116.2 ppm | Active | inactive | Active | 104 ppm |
